Assay type in all cases: biochemical
Experiment [1] addresses T1, triosephosphate isomerase (Tbb TIM) (Trypanosoma brucei, UniProt P04789). Kind of experiment: 1H NMR turnover in D2O.
Experiment [2] has as its target T1, triosephosphate isomerase (Tbb TIM). Kind of experiment: activation of the TIM-catalyzed reaction of [[…]-13C]-GA in D2O followed by 1H NMR.
Experiment [3] shares this target. Kind of experiment: coupled enzyme assay.

T1 sequence (P04789 whole entry): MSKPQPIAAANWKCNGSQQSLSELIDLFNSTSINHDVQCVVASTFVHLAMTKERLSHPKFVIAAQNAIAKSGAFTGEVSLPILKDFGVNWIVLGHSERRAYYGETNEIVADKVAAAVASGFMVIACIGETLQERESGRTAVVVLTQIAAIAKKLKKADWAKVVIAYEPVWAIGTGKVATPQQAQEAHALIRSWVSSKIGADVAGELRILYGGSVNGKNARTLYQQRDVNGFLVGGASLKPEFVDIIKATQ

In the case of `O=CCO` [[1-^13C]-GA, glycolaldehyde], in experiment [1], the “1H NMR turnover in D2O; kcat/Km with saturating phosphite” value stood at 64 ± 6 M⁻¹ s⁻¹. For `O=[PH](O)O` [phosphite dianion], the Kd in experiment [2] worked out at 19 ± 3 mM.

Consider `O=C[C@H](O)COP(=O)(O)O` [GAP, (R)-glyceraldehyde 3-phosphate], for which, in experiment [3], the Km came out at 250 µM.

The Kd is the free concentration of one partner at which half of the binding sites on the other are occupied at equilibrium, for simple one-to-one binding. Read a low Kd as tighter binding. Usually Km stands for the concentration of substrate that gives half-maximal velocity.

The values above are taken from publication PMC3138527 (2011).
